{"source": "ChEMBL document CHEMBL5236577", "about": "“Targeting Aggrecanases for Osteoarthritis Therapy: From Zinc Chelation to Exosite Inhibition” (J Med Chem, 2022)", "key": {"[1]": {"biological_target": "T1, A disintegrin and metalloproteinase with thrombospondin motifs 4 (Homo sapiens, UniProt O75173)", "T1 sequence (O75173 whole entry)": "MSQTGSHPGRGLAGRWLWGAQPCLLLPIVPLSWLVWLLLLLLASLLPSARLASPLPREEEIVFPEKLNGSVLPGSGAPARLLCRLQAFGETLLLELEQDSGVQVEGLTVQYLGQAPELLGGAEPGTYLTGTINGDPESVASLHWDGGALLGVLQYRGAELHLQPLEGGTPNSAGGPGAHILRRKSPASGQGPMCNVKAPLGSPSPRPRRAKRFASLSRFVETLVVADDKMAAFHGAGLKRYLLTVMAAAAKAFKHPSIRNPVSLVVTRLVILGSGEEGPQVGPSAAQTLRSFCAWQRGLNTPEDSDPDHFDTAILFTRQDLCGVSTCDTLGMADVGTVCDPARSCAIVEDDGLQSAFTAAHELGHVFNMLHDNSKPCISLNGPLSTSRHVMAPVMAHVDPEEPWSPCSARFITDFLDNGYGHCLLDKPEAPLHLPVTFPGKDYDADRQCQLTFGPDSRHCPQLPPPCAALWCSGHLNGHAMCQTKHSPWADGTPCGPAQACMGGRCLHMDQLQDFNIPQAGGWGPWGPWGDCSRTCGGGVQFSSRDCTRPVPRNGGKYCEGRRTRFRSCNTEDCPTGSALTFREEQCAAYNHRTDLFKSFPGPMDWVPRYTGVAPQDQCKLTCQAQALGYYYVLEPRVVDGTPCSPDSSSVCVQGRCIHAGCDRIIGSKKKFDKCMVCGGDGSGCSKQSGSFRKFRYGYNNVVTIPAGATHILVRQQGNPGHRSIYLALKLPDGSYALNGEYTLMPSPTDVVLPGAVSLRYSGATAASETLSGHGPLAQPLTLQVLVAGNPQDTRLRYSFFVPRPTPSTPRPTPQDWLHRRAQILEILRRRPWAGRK", "assay": "Inhibition of recombinant human ADAMTS-4"}, "[2]": {"biological_target": "T2, A disintegrin and metalloproteinase with thrombospondin motifs 5 (Homo sapiens, UniProt Q9UNA0)", "T2 sequence (Q9UNA0 whole entry)": "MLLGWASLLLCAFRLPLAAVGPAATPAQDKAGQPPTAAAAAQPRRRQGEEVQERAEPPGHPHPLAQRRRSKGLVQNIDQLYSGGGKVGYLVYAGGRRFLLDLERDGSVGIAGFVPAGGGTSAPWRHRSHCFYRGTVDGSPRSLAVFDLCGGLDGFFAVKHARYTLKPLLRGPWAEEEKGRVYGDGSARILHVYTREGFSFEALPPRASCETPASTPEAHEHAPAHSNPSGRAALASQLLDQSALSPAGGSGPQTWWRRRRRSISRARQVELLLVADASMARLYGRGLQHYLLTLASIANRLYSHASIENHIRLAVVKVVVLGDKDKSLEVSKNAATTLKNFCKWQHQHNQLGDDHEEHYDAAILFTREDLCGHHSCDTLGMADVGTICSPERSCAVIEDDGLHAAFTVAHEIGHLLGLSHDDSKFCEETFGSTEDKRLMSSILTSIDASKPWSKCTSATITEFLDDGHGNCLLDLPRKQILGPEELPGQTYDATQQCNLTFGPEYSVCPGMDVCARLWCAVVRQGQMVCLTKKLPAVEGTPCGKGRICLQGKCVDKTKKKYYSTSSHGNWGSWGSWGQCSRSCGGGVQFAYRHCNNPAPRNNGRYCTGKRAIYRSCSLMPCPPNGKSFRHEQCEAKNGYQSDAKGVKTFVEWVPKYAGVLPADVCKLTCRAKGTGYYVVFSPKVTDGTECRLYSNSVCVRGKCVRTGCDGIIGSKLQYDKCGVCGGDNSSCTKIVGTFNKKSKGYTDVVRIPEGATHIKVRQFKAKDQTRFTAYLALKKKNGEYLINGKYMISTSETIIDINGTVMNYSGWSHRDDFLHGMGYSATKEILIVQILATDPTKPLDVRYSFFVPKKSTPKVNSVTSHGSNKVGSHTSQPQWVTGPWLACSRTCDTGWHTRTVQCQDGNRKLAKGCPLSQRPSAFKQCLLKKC", "assay": "Inhibition of recombinant human ADAMTS-5"}, "[3]": {"biological_target": "T3, Matrilysin (Homo sapiens, UniProt P09237)", "T3 sequence (P09237 whole entry)": "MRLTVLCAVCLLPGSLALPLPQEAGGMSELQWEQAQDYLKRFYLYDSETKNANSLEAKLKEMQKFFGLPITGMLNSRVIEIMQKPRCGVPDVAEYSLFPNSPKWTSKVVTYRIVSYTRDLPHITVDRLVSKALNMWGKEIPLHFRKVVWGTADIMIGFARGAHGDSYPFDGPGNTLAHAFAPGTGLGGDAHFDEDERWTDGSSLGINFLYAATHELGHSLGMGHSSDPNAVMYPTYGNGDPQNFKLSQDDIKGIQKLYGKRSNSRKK", "assay": "Inhibition of recombinant human MMP7"}, "[4]": {"biological_target": "Collagenase 3 (Homo sapiens, UniProt P45452)", "assay": "Inhibition of recombinant human MMP13"}, "[5]": {"biological_target": "72 kDa type IV collagenase (Homo sapiens, UniProt P08253)", "sequence (P08253 whole entry)": "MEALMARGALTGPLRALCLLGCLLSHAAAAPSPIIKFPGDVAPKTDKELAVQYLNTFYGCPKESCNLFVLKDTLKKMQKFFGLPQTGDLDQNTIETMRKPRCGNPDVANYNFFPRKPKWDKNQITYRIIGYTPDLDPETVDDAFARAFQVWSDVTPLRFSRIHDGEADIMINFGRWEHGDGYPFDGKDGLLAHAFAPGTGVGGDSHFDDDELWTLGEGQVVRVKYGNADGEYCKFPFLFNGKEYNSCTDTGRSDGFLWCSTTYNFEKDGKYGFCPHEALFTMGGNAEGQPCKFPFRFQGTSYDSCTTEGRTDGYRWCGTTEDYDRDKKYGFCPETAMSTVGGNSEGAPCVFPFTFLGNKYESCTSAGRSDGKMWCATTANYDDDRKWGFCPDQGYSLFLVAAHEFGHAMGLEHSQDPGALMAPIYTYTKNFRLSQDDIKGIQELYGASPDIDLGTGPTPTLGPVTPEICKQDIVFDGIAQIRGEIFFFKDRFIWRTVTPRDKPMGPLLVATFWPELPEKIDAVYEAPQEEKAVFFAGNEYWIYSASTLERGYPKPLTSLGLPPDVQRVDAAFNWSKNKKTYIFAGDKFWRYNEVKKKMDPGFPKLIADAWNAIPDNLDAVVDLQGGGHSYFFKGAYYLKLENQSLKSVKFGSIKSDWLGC", "assay": "Inhibition of recombinant human MMP2"}}}
{"molecule": "O=c1cc(-c2ccc(O)c(O)c2)oc2cc(O)cc(O)c12", "note": "[LUTEOLIN]", "values": [{"measurement": "IC50", "setting": "[1]", "value": 9.8, "unit": "µM"}, {"measurement": "IC50", "setting": "[2]", "value": 12.2, "unit": "µM"}, {"measurement": "IC50", "setting": "[3]", "value": 68.2, "unit": "µM"}, {"measurement": "IC50", "setting": "[4]", "value": 18.3, "unit": "µM"}, {"measurement": "IC50", "setting": "[5]", "value": 40.9, "unit": "µM"}]}
